How the values were obtained:
[1] = test system: Y525 OE CaMDR1a; assay: MIC80 determination, strain Y525; type: cell-based, S. cerevisiae
Experimental: (§1) Cells were seeded at an OD600 nm of 0.005 (1.5 × 10^4 CFU), and the plates were incubated at 30 °C with shaking at 200 rpm for 48 h for S. cerevisiae strains and 24 h for C. albicans . Cell growth was assessed by measuring the OD600 nm using a Synergy 2 multimode plate reader (BioTek Instruments, VT, USA). Each MIC80 was determined using triplicate measurements for pools of 4 clones of each strain in three separate experiments.

[2] = test system: Y2301 OE ScCYP51 Y140F; assay: MIC80 determination, strain Y2301; type: cell-based, S. cerevisiae; details: Saccharomyces cerevisiae
Experimental: as §1

[3] = test system: Y2459 OE CaCYP51 CaCpr; assay: MIC80 determination, strain Y2459; type: cell-based, S. cerevisiae
Experimental: as §1

[4] = test system: Y433 OE CgCDR1; assay: MIC80 determination, strain Y433; type: cell-based, S. cerevisiae; details: Saccharomyces cerevisiae
Experimental: as §1

[5] = test system: Y1; assay: MIC80 determination, C. albicans clinical isolate Y1; type: cell-based; details: Candida albicans, pH 7, 24 h
Experimental: as §1

[6] = test system: Y611 FHB3; assay: MIC80 determination, C. albicans clinical isolate Y611 FHB3; type: cell-based; details: Candida albicans, 24 h, pH 7
Experimental: as §1

[7] = test system: Y2374 OE CgCYP51; assay: MIC80 determination, strain Y2374; type: cell-based, S. cerevisiae; details: Saccharomyces cerevisiae
Experimental: as §1

[8] = test system: Y570 OE CaCDR1B; assay: MIC80 determination, strain Y570; type: cell-based, S. cerevisiae
Experimental: as §1

[9] = test system: Y2411 Endog. ScCYP51; assay: MIC80 determination, strain Y2411; type: cell-based, S. cerevisiae; details: Saccharomyces cerevisiae
Experimental: as §1

[10] = test system: Y71 SC5314; assay: MIC80 determination, C. albicans clinical isolate Y71 SC5314; type: cell-based; details: Candida albicans
Experimental: as §1

[11] = test system: Y2300 OE ScCYP51; assay: MIC80 determination, strain Y2300; type: cell-based, S. cerevisiae; details: Saccharomyces cerevisiae
Experimental: as §1

[12] = test system: Y525 MFS efflux pump CaMDR1a overexpressed; assay: Agarose (disk) diffusion assay, strain Y525; type: cell-based, S. cerevisiae; details: 10 nmol/disk, 30 °C, 48 h
Source text: (§2) Final compounds were screened as racemic mixtures using agarose diffusion assays to visualize their inhibitory activity against a panel of recombinant S. cerevisiae strains i.e., S. cerevisiae strains expressing control levels of wild-type CYP51 (ScCYP51), overexpressed wild-type ScCYP51, overexpressed azole-resistant ScCYP51 Y140F/H mutations and overexpressed C. albicans efflux pumps MDR1a or CDR1B (Figure and Table S1).
(§3) The susceptibilities of S. cerevisiae and Candida species strains to azole compounds were observed as zones of growth inhibition in agarose diffusion assays. The disk diffusion assays were carried out as described by Keniya et al. Complete supplement mixture (CSM) agarose (0.6% agarose [wt/vol]; 20 mL of synthetic defined medium (SD); pH 6.8–7) was solidified in a rectangular Petri dish which was overlaid with CSM agarose (0.6% [wt/vol]; 5 mL; pH 6.8–7) seeded with yeast cells at an optical density (OD600) of 0.008 (118,000 cells per 1 mL of overlay). Azole compounds (10 nmol/disk) were applied to sterile BBL paper disks (Becton Dickinson Co., Sparks, MD) and placed on solidified overlays. Cell growth was assessed after incubation at 30 °C for 48 h.

[13] = test system: Y2513 OE ScCYP51 Y140H; assay: MIC80 determination, strain Y2513; type: cell-based, S. cerevisiae; details: Saccharomyces cerevisiae
Experimental: as §1

[14] = test system: Y610 FHB1; assay: MIC80 determination, C. albicans clinical isolate Y610 FHB1; type: cell-based; details: Candida albicans; C. albicans clinical isolate Y610 FHB1 (weakly expresses CaCDR1); pH 7, 24 h
Experimental: as §1

[15] = test system: Y2411 azole sensitive control strain; assay: Agarose (disk) diffusion assay, strain Y2411; type: cell-based, S. cerevisiae; details: 10 nmol/disk, 30 °C, 48 h
Source text: as §2, §3

[16] = test system: Y2300 ScCYP51 overexpressed; assay: Agarose (disk) diffusion assay, strain Y2300; type: cell-based, S. cerevisiae; details: 10 nmol/disk, 30 °C, 48 h
Source text: as §2, §3

[17] = Saccharomyces cerevisiae, 48 h, pH 6.8

O=C(NCC(O)(Cn1cncn1)c1ccc(F)cc1F)c1ccc(NC(=O)c2ccc(Cl)cc2)cc1 (centres unmarked) [Compound 26, 4-Chloro-N-(4-((2-(2,4-difluorophenyl)-2-hydroxy-3-(1H-1,2,4-triazol-1-yl)propyl)carbamoyl)phenyl)benzamide]
MIC80 [1, 17]: > 1 µM | MIC ([1]; read-out: MIC (nM) C. albicans model Y525): > 1000 nM | MIC80 ([2]; 48 h, pH 6.8): 0.123 ± 0.038 µM | MIC ([2]; read-out: MIC (nM) S. cerevisiae Y2301): 123 ± 38 nM | MIC80 [3, 17]: 0.118 ± 0.003 µM | MIC ([3]; read-out: MIC (nM) C. albicans model Y2459): 118 ± 3 nM | MIC80 [4]: > 40 µM | MIC80 [5]: 0.285 µM | MIC80 [6]: 19.5 µM | MIC80 [7]: 0.205 µM | MIC ([7]; read-out: MIC (nM) C. glabrate model Y2374): 205 nM | MIC ([8]; Candida albicans, read-out: MIC (nM) C. albicans model Y570): > 40000 nM | MIC80 [8, 17]: > 40 µM | MIC80 ([9]; strain Y2411 Endog. ScCYP51, SD pH 6.8, 30 °C, 48 h): 0.039 ± 0.014 µM | MIC ([9]; supplement csv, read-out: MIC (nM) S. cerevisiae Y2411): 39 ± 14 nM | MIC ([10]; SC5314, supplement csv): 208 ± 83 nM | MIC80 ([10]; C. albicans clinical isolate Y71 SC5314, pH 7, 24 h): 0.208 ± 0.083 µM | MIC80 ([11]; 48 h, pH 6.8): 0.182 ± 0.03 µM | MIC ([11]; read-out: MIC (nM) S. cerevisiae Y2300): 182 ± 30 nM | zone of growth inhibition (inhibitory activity in words) [12]: less effective | MIC80 ([13]; 48 h, pH 6.8): 0.087 ± 0.004 µM | MIC ([13]; read-out: MIC (nM) S. cerevisiae Y2513): 87 ± 4 nM | MIC80 [14]: 0.95 µM

O=C(Nc1ccc(CNC(=O)C(Cn2cncn2)c2ccc(F)cc2F)cc1)c1cccnc1 (centres unmarked) [Compound 47, N-(4-((2-(2,4-Difluorophenyl)-3-(1H-1,2,4-triazol-1-yl)propanamido)methyl)phenyl)nicotinamide]
zone of growth inhibition (inhibitory activity in words) [15]: poorly inhibited | zone of growth inhibition (inhibitory activity in words) [16]: did not inhibit

O=C(Nc1ccc(CNC(=O)C(Cn2cncn2)c2ccc(F)cc2F)cc1)c1cnccn1 (centres unmarked) [Compound 48, N-(4-((2-(2,4-Difluorophenyl)-3-(1H-1,2,4-triazol-1-yl)propanamido)methyl)phenyl)pyrazine-2-carboxamide]
zone of growth inhibition (inhibitory activity in words) [16]: lower inhibitory activity

Source: publication PMC12169614, “Exploring Long Arm Amide-Linked Side Chains in the Design of Antifungal Azole Inhibitors of Sterol 14α-Demethylase (CYP51)” (Journal of Medicinal Chemistry, 2025)
